Experimental data: US10597696B2, “Detection of Niemann-Pick disease comprising detection of lysozyme and cathepsins” (UNIVERSITY OF NOTRE DAME DU LAC, priority 2013, dated 2020)
Entries after “also recorded” stand apart in the source; their conditions may differ.

Key:
[1] = tested on: Npc1^nih Npc1^−/− mouse liver; assay: Immunohistochemistry of liver sections after HPβCD; type: in vivo
Description: (§1) Mice were sacrificed by asphyxiation using CO2. The circulatory bed was washed with PBS (pH 7.4), and subsequently perfused with 10% neutral buffered formalin (˜4% formaldehyde). The organs (brain and liver) were surgically harvested and stored in 4% formaldehyde at room temperature (RT) until transfer to paraffin. Paraffin-embedded tissue sections (3-4 μm) were dewaxed in xylene and alcohol. For Ly-6G and calbindin staining, antigen retrieval was done by pre-incubating deparaffinized samples with 0.05% proteinase K (Dako, Germany) in 50 mM Tris-HCl (pH 7.5) for 8 min at RT. CTSS and lysozyme were retrieved by boiling the sections in acidic condition for 30 min. Sections were incubated with anti-Ly-6G (20 μg/ml), anti-calbindin (1:1000), anti-CTSS (20 μg/ml) or anti-lysozyme (1:20) overnight at 4° C. Reagents were prepared according to the manufacturer's instructions (Vector laboratories). The staining protocol was followed as described previously (19). The secondary antibody for neutrophil staining was biotinylated rabbit anti-rat IgG (mouse absorbed, Vector Laboratories) and for Purkinje neurons was biotinylated horse anti-mouse IgG (Vector Laboratories).
(§2) For fluorescence microscopy, FITC-conjugated IgG (MP Biomedicals, Solon, Ohio, USA) was the secondary antibody. Sections stained only with secondary antibodies served as controls. Brightfield images were acquired on a Nikon Olympus microscope, using a Nikon digital DS-Fi1-U2 camera controlled by NIS-Elements F3.0 Nikon software (all from Nikon Instruments INC, Tokyo, Japan). Images were visualized with A10 PL 10×/0.25, or a DPIan Apo 40×/1.00 oil-immersion or a DPIan Apo 100×/1.30 oil-immersion objective lens (Nikon). Fluorescence microscopy and digital image collection were performed using an Olympus IX inverted fluorescence microscope and a Photometrix cooled CCD camera (CH350/LCCD) driven by DeltaVision software from Applied Precision (Seattle, Wash., USA). DeltaVision software (softWoRx) was used to deconvolve these images. Images were visualized with 40× oil-immersion objective lens and are single optical sections. ImageJ (National Institute of Health, Bethesda, Md., USA) software was used to process and quantify the fluorescence intensity of CTSS and lysozyme.
Starting at P21 and once a week thereafter, Npc1^nih and Npc1^nmf164 mice were injected i.p with 20% 2-hydroxypropyl-beta-cyclodextrin (HPβCD, 4000 mg/Kg) prepared in 0.2% DMSO and 0.9% saline. Control mice received 0.2% DMSO in 0.9% saline. Blood was collected either via cheek bleed or terminal heart bleed from mice in EDTA tubes (BD Biosciences, San Jose, Calif., USA). Plasma was separated by centrifugation at 2500 rpm for 15 min and stored at −70° C. until used.

[2] = tested on: Npc1^nih Npc1^−/− mouse brain; assay: Immunohistochemistry of brain sections after HPβCD; type: in vivo; settings: immunofluorescence
Description: as §1
as §2, with “DeltaVision software (softWoRx) was used to deconvolve these images. Images were visualized with 40× oil-immersion objective lens and are single optical sections.” left out, “lysozyme. […]” for “lysozyme.”

[3] = tested on: Npc1^nih Npc1^−/− mice; assay: Plasma lysozyme activity in HPβCD-treated Npc1^nih mice; type: in vivo, mouse
Description: Lysozyme activity in plasma was measured using fluorescence based lysozyme assay kit (EnzCheck, Life Technologies, Carlsbad, Calif., USA) as describer earlier (19). Plasma corresponding to 25 μg protein from female and male Npc1^nih mice was used in a 100 μl reaction volume. The reaction was carried out at 37° C. for 24 h. Fluorescence was read using excitation/emission of 494/518 nm in a multiwell plate reader spectramax M2 (Molecular devices, CA, USA). The values obtained were normalized by dividing the numbers by the mean value of lysozyme obtained among untreated Npc1^+/− mice. Purified chicken egg white lysozyme was used as a positive control. Starting at P21 and once a week thereafter, Npc1^nih and Npc1^nmf164 mice were injected i.p with 20% 2-hydroxypropyl-beta-cyclodextrin (HPβCD, 4000 mg/Kg) prepared in 0.2% DMSO and 0.9% saline. Control mice received 0.2% DMSO in 0.9% saline. Blood was collected either via cheek bleed or terminal heart bleed from mice in EDTA tubes (BD Biosciences, San Jose, Calif., USA). Plasma was separated by centrifugation at 2500 rpm for 15 min and stored at −70° C. until used.

[4] = Npc1^nih Npc1^−/−, weekly HPβCD, at 80+ days

SMILES: CC(O)COC[C@H]1O[C@@H]2O[C@H]3[C@H](O)[C@@H](O)[C@@H](O[C@H]4[C@H](O)[C@@H](O)[C@@H](O[C@H]5[C@H](O)[C@@H](O)[C@@H](O[C@H]6[C@H](O)[C@@H](O)[C@@H](O[C@H]7[C@H](O)[C@@H](O)[C@@H](O[C@H]8[C@H](O)[C@@H](O)[C@@H](O[C@H]1[C@H](O)[C@H]2O)O[C@@H]8COCC(C)O)O[C@@H]7COCC(C)O)O[C@@H]6COCC(C)O)O[C@@H]5COCC(C)O)O[C@@H]4COCC(C)O)O[C@@H]3COCC(C)O (stereo partly drawn) [HPβCD, 2-hydroxypropyl-beta-cyclodextrin]
- CTSS accumulation in liver ([1]; Npc1^−/− mice, anti-CTSS IHC): dramatically reduced
- accumulation of foamy macrophages in liver ([1]; Npc1^−/− mice, anti-CTSS IHC): eliminated accumulation of foamy macrophages; also recorded: eliminated the foamy macrophages and CTSS staining
- neutrophil clusters in liver ([1]; Npc1^−/− mice, anti-Ly-6G IHC, 50 and 80 days): reduced neutrophil clusters; also recorded: barely detected
- macrophages containing lysozyme in liver ([1]; Npc1^−/− mice, anti-lysozyme staining): largely eliminated
- hepatocyte architecture ([1]; animals treated with HPβCD, histochemistry): decreased cytoplasmic staining with slight irregular plasma membrane
- lysozyme levels in the cerebellum (white mater region) ([2]; FIG. 19E-F): no significant effect
- reduction of lysozyme in molecular layer of the cerebellum ([2]; FIG. 19I-K): ~25%
- reduction of CTSS levels in hippocampal neurons ([2]; ImageJ quantification): ~20%
- decrease of plasma lysozyme ([3]; NPC mice, composite quartile analysis (FIG. 20B)): 50%
- plasma lysozyme activity ([3]; Npc1^nih Npc1^−/−, weekly 4000 mg/Kg from P21, at 50-60 days): reduced plasma lysozyme activity levels seen in wild type mice
- plasma lysozyme compared to mock treated animals [3, 4]: reduction
- plasma lysozyme increase compared to normal animals [3, 4]: 1.5 fold
